Experimental data taken from BindingDB's records for patent US12509446 (Rottapharm Biotech, 2025).

How the values were obtained:
[1] = molecular target: Vascular endothelial growth factor receptor 2 (Homo sapiens, UniProt P35968); assay: In Vitro Kinase Activity Assay
Protocol: Table 12: The VEGFR2 kinase inhibitory activity of representative examples of compounds of Formula (I) assays was evaluated in Eurofins Cerep (France). The concentration range of the inhibitors under investigation was from 10−8 M up to 10−5 M final concentration. Some compounds were re-tested in a concentration-range starting from 10−9 M. The results are expressed as a percent of control activity (in the absence of test compound) and the IC50 values were determined by non-linear regression analysis of the inhibition/concentration curves generated with mean replicate values.

[2] = molecular target: Tyrosine-protein kinase Fyn (Homo sapiens, UniProt P06241); assay: In Vitro Kinase Activity Assay
Chain of Tyrosine-protein kinase Fyn (P06241 whole entry): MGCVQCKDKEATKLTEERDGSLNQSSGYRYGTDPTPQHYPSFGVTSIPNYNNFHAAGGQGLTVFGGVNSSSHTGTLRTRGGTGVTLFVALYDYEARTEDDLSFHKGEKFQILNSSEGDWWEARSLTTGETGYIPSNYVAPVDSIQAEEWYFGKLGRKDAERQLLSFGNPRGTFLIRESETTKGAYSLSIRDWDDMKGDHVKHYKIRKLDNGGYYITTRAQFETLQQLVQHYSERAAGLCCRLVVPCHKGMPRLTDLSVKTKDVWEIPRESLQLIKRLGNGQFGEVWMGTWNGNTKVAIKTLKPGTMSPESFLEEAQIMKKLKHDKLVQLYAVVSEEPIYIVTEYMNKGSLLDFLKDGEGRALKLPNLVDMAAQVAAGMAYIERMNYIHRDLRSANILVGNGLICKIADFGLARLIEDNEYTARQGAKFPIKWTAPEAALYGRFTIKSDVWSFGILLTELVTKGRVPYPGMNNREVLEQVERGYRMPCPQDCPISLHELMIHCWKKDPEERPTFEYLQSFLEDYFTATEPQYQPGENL
Protocol: Table 11: The Fyn kinase inhibitory activity of representative examples of compounds of Formula (1) was evaluated by Z′-LYTE™ Kinase Assay Platform (Invitrogen). Compounds were evaluated towards active Fyn (full length active, molecular weight 87.1 kDa; Invitrogen). […] Samples representing the 0% inhibition (or total enzymatic activity) were in the presence of compound diluent (1% DMSO final in Reaction Buffer 50 mMHepes, 10 mM MgCl2, 1 mM EGTA, 0.01% Brij-35, pH 7.5). The kinase reaction was carried out in a total volume of 10 μl, for 60 minutes at 25° C. The 0% Phosphorylation (i.e. no ATP) and 100% Phosphorylation Assay Controls, included in each plate, allowed to calculate the percent phosphorylation achieved in the specific reaction well. Results are expressed as percentage of inhibition and the IC50 values were calculated by non-linear curve fitting using GraphPad™ Prism software (version 6 for Windows).

Chain of Vascular endothelial growth factor receptor 2 (P35968 whole entry): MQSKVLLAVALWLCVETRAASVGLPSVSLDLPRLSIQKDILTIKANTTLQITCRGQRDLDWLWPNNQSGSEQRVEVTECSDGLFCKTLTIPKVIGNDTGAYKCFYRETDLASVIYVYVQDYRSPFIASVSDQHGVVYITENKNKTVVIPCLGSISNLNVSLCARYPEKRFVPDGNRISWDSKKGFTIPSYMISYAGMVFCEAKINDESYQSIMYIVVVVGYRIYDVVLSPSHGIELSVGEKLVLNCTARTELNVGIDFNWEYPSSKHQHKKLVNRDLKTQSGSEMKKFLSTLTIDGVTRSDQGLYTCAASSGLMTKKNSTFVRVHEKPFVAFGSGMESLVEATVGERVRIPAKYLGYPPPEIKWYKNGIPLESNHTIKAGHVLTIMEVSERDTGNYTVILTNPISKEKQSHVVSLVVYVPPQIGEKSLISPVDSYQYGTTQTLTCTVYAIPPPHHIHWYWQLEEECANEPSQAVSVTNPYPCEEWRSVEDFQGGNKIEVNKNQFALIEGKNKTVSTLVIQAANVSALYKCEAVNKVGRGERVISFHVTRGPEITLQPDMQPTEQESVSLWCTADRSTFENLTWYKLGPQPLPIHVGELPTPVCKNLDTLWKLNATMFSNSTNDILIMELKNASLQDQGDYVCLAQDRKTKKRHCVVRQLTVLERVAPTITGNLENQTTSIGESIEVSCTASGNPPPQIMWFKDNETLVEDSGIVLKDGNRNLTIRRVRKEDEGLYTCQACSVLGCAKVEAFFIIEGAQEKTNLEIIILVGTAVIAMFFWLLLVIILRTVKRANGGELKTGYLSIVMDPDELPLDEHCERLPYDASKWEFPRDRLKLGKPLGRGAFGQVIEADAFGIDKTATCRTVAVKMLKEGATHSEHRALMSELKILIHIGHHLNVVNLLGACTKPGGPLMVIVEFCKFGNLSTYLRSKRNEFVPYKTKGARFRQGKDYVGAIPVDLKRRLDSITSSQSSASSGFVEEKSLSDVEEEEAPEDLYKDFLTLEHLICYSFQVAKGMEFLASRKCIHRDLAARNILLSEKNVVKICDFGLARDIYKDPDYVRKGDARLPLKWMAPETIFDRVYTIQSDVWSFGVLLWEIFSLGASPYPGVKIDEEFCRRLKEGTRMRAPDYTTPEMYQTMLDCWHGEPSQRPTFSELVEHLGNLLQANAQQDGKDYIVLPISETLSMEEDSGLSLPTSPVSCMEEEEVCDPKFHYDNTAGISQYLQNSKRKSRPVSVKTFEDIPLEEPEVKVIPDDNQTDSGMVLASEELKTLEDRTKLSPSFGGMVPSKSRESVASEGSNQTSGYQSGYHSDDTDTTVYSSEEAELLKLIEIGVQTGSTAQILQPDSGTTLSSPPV

IC50 [1] [nM]	IC50 [2] [nM]	Structure (SMILES)
< 10	8	Cc1nc(Nc2cc(CCc3ccc(F)c(NC(=O)c4cccc(C(F)(F)F)c4)c3)n[nH]2)cc(N2CCN(CCO)CC2)n1 [US12509446, Compound 44]
< 10	22	CCN1CCN(c2cc(Nc3cc(CCc4ccc(F)c(NC(=O)c5cccc(C(F)(F)F)c5)c4)n[nH]3)nc(C)n2)CC1 [US12509446, Compound 45]
< 10	18	Cc1nc(Nc2cc(CCc3ccc(F)c(NC(=O)c4cccc(C(F)(F)F)c4)c3)n[nH]2)cc(N2CC(O)C2)n1 [US12509446, Compound 46]

The remaining lines, values behind:

Structure (SMILES)	IC50 [1] [nM]	IC50 [2] [nM]
Cc1ccc(NC(=O)c2cccc(S(C)(=O)=O)c2)cc1CCc1cc(Nc2cnccn2)[nH]n1 [US12509446, Compound 1]	< 10	36
CCN1CCN(c2cc(Nc3cc(CCc4cc(NC(=O)c5cccc(C(F)(F)F)c5)ccc4F)n[nH]3)nc(C)n2)CC1 [US12509446, Compound 29]	< 10	15
Cc1nc(Nc2cc(CCc3cc(NC(=O)c4cccc(C(F)(F)F)c4)ccc3F)n[nH]2)cc(N2CCN(CCO)CC2)n1 [US12509446, Compound 30]	< 10	6
Cc1nc(Nc2cc(CCc3cc(NC(=O)c4cccc(C(F)(F)F)c4)ccc3F)n[nH]2)cc(N2CC(O)C2)n1 [US12509446, Compound 31]	18	10
